In patent US9957251B2 (Takeda Pharmaceutical Company Limited, priority 2014, dated 2018):
Where a name gives a salt, the structure may show the parent alone.

Tests used:
[1] = system: human multiple myeloma RPMI8226 cells; assay: Inhibitory activity against human multiple myeloma RPMI8226 cell growth (CellTiter-Glo); format: cell-based; conditions: 1 μM of the test compound, cultured for 8 days; for inhibition at 1 µM: Homo sapiens, RPMI-8226, 192 h, read-out: Percent inhibition of RPMI8226 cell growth (%); for Percent inhibition of RPMI8226 cell growth (%): 1 µM
Method in brief: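 RPMI8226 cells (300/well) cultured 1 day at 37 °C, 5% CO2, then given compound at 1 μM for 8 days. ATP luminescence (CellTiter-Glo) read; percent inhibition relative to 0.1% DMSO wells.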

CDK8/CycC = target: T1, CDK8/CycC (Homo sapiens, UniProt P49336); assay: CDK8 inhibitory activity (TR-FRET, Kinase Tracer-236 displacement); format: binding; conditions: 1 μM of the test compound; for inhibition at 1 µM: read-out: Percent inhibition of CDK8 activity (%); for Percent inhibition of CDK8 activity (%): 1 µM
T1 construct: purchased Carna Biosciences
T1 sequence (P49336 whole entry): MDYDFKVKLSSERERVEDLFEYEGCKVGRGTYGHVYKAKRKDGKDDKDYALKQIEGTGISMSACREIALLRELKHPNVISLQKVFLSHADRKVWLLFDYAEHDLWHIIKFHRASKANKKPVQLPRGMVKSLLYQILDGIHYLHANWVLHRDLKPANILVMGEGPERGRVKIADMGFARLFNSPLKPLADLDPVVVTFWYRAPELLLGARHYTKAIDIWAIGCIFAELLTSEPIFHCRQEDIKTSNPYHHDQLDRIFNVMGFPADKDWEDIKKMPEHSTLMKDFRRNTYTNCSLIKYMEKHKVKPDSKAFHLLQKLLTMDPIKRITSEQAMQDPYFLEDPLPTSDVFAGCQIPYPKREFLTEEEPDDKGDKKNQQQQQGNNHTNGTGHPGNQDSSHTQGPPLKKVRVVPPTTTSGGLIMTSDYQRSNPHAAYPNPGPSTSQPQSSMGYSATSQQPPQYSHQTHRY
T1 sequence (P24863 whole entry partner): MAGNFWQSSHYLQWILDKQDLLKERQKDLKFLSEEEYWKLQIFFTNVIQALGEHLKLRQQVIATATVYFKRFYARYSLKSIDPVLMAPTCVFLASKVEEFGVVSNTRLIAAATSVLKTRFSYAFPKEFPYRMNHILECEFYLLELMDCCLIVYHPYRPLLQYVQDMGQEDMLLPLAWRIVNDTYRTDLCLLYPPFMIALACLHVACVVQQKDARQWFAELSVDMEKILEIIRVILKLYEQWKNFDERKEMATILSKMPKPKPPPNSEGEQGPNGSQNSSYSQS
Method in brief: (§1)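 Binding assay measuring displacement of Kinase Tracer-236 (60 nM in the added mix) by compound, using Eu-cryptate anti-GST antibody with CDK8/CycC (84 ng/mL) or CDC2L6/CycC (87 ng/mL) solutions. After 1 h at room temperature, TR-FRET read at 615 and 665 nm (excitation 320 nm).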

CDK19 (CDC2L6/CycC) = target: T2, CDK19 (CDC2L6/CycC) (Homo sapiens, UniProt Q9BWU1); assay: CDK19 inhibitory activity (TR-FRET, Kinase Tracer-236 displacement); format: binding; conditions: 1 μM of the test compound; for inhibition at 1 µM: read-out: Percent inhibition of CDK19 activity (%); for Percent inhibition of CDK19 activity (%): 1 µM
T2 construct: purchased Carna Biosciences
T2 sequence (Q9BWU1 whole entry): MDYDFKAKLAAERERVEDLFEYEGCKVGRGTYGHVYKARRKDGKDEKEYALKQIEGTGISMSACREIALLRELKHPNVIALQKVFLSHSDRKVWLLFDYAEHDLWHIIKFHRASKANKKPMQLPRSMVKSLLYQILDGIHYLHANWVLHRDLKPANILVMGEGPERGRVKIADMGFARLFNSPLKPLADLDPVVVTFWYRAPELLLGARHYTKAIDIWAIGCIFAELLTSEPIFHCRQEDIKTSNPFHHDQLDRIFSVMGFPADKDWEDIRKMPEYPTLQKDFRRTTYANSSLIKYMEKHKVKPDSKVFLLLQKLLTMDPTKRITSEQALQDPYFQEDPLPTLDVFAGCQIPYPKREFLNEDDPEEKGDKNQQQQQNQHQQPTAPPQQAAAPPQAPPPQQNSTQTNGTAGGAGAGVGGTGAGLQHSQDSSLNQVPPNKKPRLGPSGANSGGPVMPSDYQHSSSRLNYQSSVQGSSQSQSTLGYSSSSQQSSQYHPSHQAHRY
T2 sequence (P24863 whole entry partner): as the sequence (P24863 whole entry partner) above
Method in brief: as §1

[2] = system: SW480 human colorectal cancer cells; assay: Antitumor efficacy in mice bearing SW480 human colorectal cancer xenograft; format: in vivo, BALB/c female nude mice; conditions: Mus musculus, SW480, 336 h, oral, 1 dose per day, 14 days, percent tumor growth relative to control group, read-out: T/C (%)
Method: The compound of the present invention was evaluated for its antitumor efficacy in mice bearing cancer derived from SW480 human colorectal cancer cells by the following method.
SW480 human colorectal cancer cells were transplanted into 6- to 7-week-old BALB/c female nude mice (CLEA Japan) by subcutaneous injection of 2.0×10^6 cells per mouse. At 7 to 14 days after the transplantation, the size of the engrafted tumor was measured, and the tumor volume was calculated according to the following formula. Tumor volume=major axis×minor axis×minor axis×(½)
Test subjects having an engrafted tumor with a tumor volume of approximately 100 mm^3 were selected and used in the experiment (6 subjects per group). A suspension of each test compound in a 0.5% methylcellulose solution (Wako Pure Chemical Industries) was orally administered to the mice for 14 days at the dose (mg/kg body weight, indicating the amount per dose) and the number of doses shown in Table 4. On the day before the start of the administration and the day before the completion of the administration, the tumor size was measured, and the tumor volume was calculated.
Percent tumor growth (T/C (%)) of the test compound administration group relative to the control administration group was calculated according to the following formula. T/C(%)=(tumor volume of the test compound administration group after the completion of the administration−tumor volume of the test compound administration group at the day before the start of the administration)/(tumor volume of the control administration group after the completion of the administration−tumor volume of the control administration group at the day before the start of the administration))×100

Row | inhibition at 1 µM (CDK8/CycC) [%] | inhibition at 1 µM (CDK19 (CDC2L6/CycC)) [%] | Structure (SMILES) | inhibition at 1 µM [1] [%] | other results
1 | 103 | 102 | Cn1cc(-c2c(F)cncc2/C=C/C(=O)Nc2ccc(CN3CC(F)(F)C3)cc2)cn1 [Example 359, (2E)-N-(4-((3,3-Difluoroazetidin-1-yl)methyl)phenyl)-3-(5-fluoro-4-(1-methyl-1H-pyrazol-4-yl)pyridin-3-yl)acrylamide] | 65 | response vs control in vivo at 30 mg/kg [2]: 36%
2 | 105 | 101 | O=C(/C=C/c1cnccc1-c1cnn(C2CC2)c1)Nc1ccc(CN2CC(F)(F)C2)cc1 [Example 309, (2E)-3-(4-(1-Cyclopropyl-1H-pyrazol-4-yl)pyridin-3-yl)-N-(4-((3,3-difluoroazetidin-1-yl)methyl)phenyl)acrylamide] | 58 | response vs control in vivo at 30 mg/kg [2]: 51%
3 | 98 | 102 | Cn1cc(-c2ccncc2/C=C/C(=O)Nc2ccc3c(c2)CN(CC(F)(F)F)C3)cn1 [Example 289, (2E)-3-(4-(1-Methyl-1H-pyrazol-4-yl)pyridin-3-yl)-N-(2-(2,2,2-trifluoroethyl)-2,3-dihydro-1H-isoindol-5-yl)acrylamide] | 64 | response vs control in vivo at 50 mg/kg [2]: 31%
4 | 102 | 100 | Cn1cc(-c2ccncc2/C=C/C(=O)Nc2ccc3c(c2)CN(CC(F)(F)F)CC3)cn1 [Example 216, (2E)-3-(4-(1-Methyl-1H-pyrazol-4-yl)pyridin-3-yl)-N-(2-(2,2,2-trifluoroethyl)-1,2,3,4-tetrahydroisoquinolin-7-yl)acrylamide] | 59 | response vs control in vivo at 50 mg/kg [2]: 43%
5 |  |  | O=C(/C=C/c1cnccc1-c1cnn(C2CC2)c1)Nc1ccc(CN2CC(F)(F)C2)cc1 [Example 373, (2E)-3-(4-(1-Cyclopropyl-1H-pyrazol-4-yl)pyridin-3-yl)-N-(4-((3,3-difluoroazetidin-1-yl)methyl)phenyl)acrylamide sulfate] |  | Percent inhibition of RPMI8226 cell growth (%) ([1]; sulfate): 70%; Percent inhibition of CDK8 activity (%) (CDK8/CycC; sulfate): 101%; Percent inhibition of CDK19 activity (%) (CDK19 (CDC2L6/CycC); sulfate): 101%
6 | 99 | 100 | Cn1cc(-c2ccncc2/C=C/C(=O)Nc2ccc(CN3CCC(F)(F)C3)cc2)cn1 [Example 68, (2E)-N-(4-((3,3-difluoropyrrolidin-1-yl)methyl)phenyl)-3-(4-(1-methyl-1H-pyrazol-4-yl)pyridin-3-yl)acrylamide] | 62 | 
7 | 102 | 95 | CC(C)(F)Cc1ccc(NC(=O)/C=C/c2cnccc2-c2cnn(C3CC3)c2)cc1 [Example 293, (2E)-3-(4-(1-cyclopropyl-1H-pyrazol-4-yl)pyridin-3-yl)-N-(4-(2-fluoro-2-methylpropyl)phenyl)acrylamide] | 61 | 
8 | 98 | 97 | COCCOc1ccc(NC(=O)/C=C/c2cnccc2-c2cnn(C)c2)cc1 [Example 253, (2E)-N-(4-(2-methoxyethoxy)phenyl)-3-(4-(1-methyl-1H-pyrazol-4-yl)pyridin-3-yl)acrylamide] | 62 | 
9 | 94 | 91 | Cn1cc(-c2ccncc2/C=C/C(=O)Nc2cc(F)c(CN3CCOCC3)cc2F)cn1 [Example 237, (2E)-N-(2,5-difluoro-4-(morpholin-4-ylmethyl)phenyl)-3-(4-(1-methyl-1H-pyrazol-4-yl)pyridin-3-yl)acrylamide] | 66 | 
10 | 95 | 96 | Cn1cc(-c2ccncc2/C=C/C(=O)Nc2ccc(CNC3CC3)cc2)cn1 [Example 49, (2E)-N-(4-((cyclopropylamino)methyl)phenyl)-3-(4-(1-methyl-1H-pyrazol-4-yl)pyridin-3-yl)acrylamide] | 56 | 
11 | 90 | 85 | CCn1cc(-c2ccncc2CCC(=O)Nc2ccc(CN3CCOCC3)cc2)cn1 [Example 99, 3-(4-(1-Ethyl-1H-pyrazol-4-yl)pyridin-3-yl)-N-(4-(morpholin-4-ylmethyl)phenyl)propanamide] | 62 | 
12 | 98 | 97 | O=C(/C=C/c1cnccc1-c1cnn2ccccc12)Nc1ccc(CN2CCOCC2)cc1 [Example 101, (2E)-N-(4-(morpholin-4-ylmethyl)phenyl)-3-(4-(pyrazolo[1,5-a]pyridin-3-yl)pyridin-3-yl)acrylamide] | 55 | 
13 |  |  | O=C(/C=C/c1cnccc1-c1cnn(C2CC2)c1)Nc1ccc(CN2CC(F)(F)C2)cc1 [Example 374, (2E)-3-(4-(1-Cyclopropyl-1H-pyrazol-4-yl)pyridin-3-yl)-N-(4-((3,3-difluoroazetidin-1-yl)methyl)phenyl)acrylamide diphosphate] |  | Percent inhibition of RPMI8226 cell growth (%) [1]: 69%; Percent inhibition of CDK8 activity (%) (CDK8/CycC): 100%; Percent inhibition of CDK19 activity (%) (CDK19 (CDC2L6/CycC)): 100%
14 | 94 | 90 | Cn1cc(-c2ccncc2/C=C/C(=O)Nc2ccc3ncsc3c2)cn1 [Example 169, (2E)-N-(1,3-benzothiazol-6-yl)-3-(4-(1-methyl-1H-pyrazol-4-yl)pyridin-3-yl)acrylamide] | 53 | 
15 | 102 | 102 | Cn1cnc2ccc(-c3ccncc3/C=C/C(=O)Nc3ccc(CN4CCOCC4)cc3)cc21 [Example 234, (2E)-3-(4-(1-methyl-1H-benzimidazol-6-yl)pyridin-3-yl)-N-(4-(morpholin-4-ylmethyl)phenyl)acrylamide] | 65 | 
16 | 101 | 96 | O=C(/C=C/c1cnccc1-c1cnn(C2CC2)c1)Nc1ccc(COCC(F)(F)F)cc1F [Example 330, (2E)-3-(4-(1-Cyclopropyl-1H-pyrazol-4-yl)pyridin-3-yl)-N-(2-fluoro-4-((2,2,2-trifluoroethoxy)methyl)phenyl)acrylamide] | 53 | 
17 | 97 | 97 | Cn1cc(-c2ccncc2/C=C/C(=O)Nc2ccc(CN3CCC4(CC3)COC4)cc2)cn1 [Example 84, (2E)-3-(4-(1-methyl-1H-pyrazol-4-yl)pyridin-3-yl)-N-(4-(2-oxa-7-azaspiro[3.5]non-7-ylmethyl)phenyl)acrylamide] | 60 | 
18 | 101 | 100 | O=C(/C=C/c1cnccc1-c1ccc2nccn2c1)Nc1ccc(CN2CCOCC2)cc1 [Example 222, (2E)-3-(4-(imidazo[1,2-a]pyridin-6-yl)pyridin-3-yl)-N-(4-(morpholin-4-ylmethyl)phenyl)acrylamide] | 52 | 
19 | 99 | 101 | O=C(/C=C/c1cnccc1-c1ccc2[nH]cnc2c1)Nc1ccc(CN2CCOCC2)cc1 [Example 241, (2E)-3-(4-(1H-benzimidazol-5-yl)pyridin-3-yl)-N-(4-(morpholin-4-ylmethyl)phenyl)acrylamide] | 66 | 
20 | 100 | 97 | Cn1ccc2cc(NC(=O)/C=C/c3cnccc3-c3cnn(C4CC4)c3)ccc21 [Example 251, (2E)-3-(4-(1-Cyclopropyl-1H-pyrazol-4-yl)pyridin-3-yl)-N-(1-methyl-1H-indol-5-yl)acrylamide] | 61 | 
21 | 106 | 104 | Cn1cc(-c2c(F)cncc2/C=C/C(=O)Nc2ccc3c(c2)CN(CC(F)(F)F)C3)cn1 [Example 327, (2E)-3-(5-Fluoro-4-(1-methyl-1H-pyrazol-4-yl)pyridin-3-yl)-N-(2-(2,2,2-trifluoroethyl)-2,3-dihydro-1H-isoindol-5-yl)acrylamide] | 56 | 
22 | 100 | 97 | Cn1cc(-c2ccncc2/C=C/C(=O)Nc2ccc3c(c2)OCCO3)cn1 [Example 168, (2E)-N-(2,3-dihydro-1,4-benzodioxin-6-yl)-3-(4-(1-methyl-1H-pyrazol-4-yl)pyridin-3-yl)acrylamide] | 59 | 
